Assay results: PubChem BioAssay AID1963863 (Molecular Pharmacology Branch, DTP, NCI, 2024)
Several values for one entry are separate records, joined by “and”; a condition that tells them apart may be missing. Identical values can stand only once.

System: 931267-113-T-J1-PDC KRAS spheroid with HUVEC/MSC, viability
Test: Anticancer human tumor 931267-113-T-J1-PDC patient-derived colon adenocarcinoma cell line growth inhibition [KRAS2]
Details: for viability, T/C: stronger effect = lower value
From the text: Multicellular complex tumor spheroid response to RAS pathway inhibitors in combination with a targeted agents in patient-derived cell lines with oncogenic KRAS variants from multiple cancer types
A high-throughput screen of multi-cell type tumor spheroids was designed to identify active combinations of targeted small molecules and KRAS pathway inhibitors. Complex spheroids include a stromal component modeled by human endothelial cells (HUVEC) and fibroblasts modeled by human mesenchymal stem cells (MSCs). The concentration ranges selected for each drug and investigational agent were based upon clinically achievable concentrations if the clinical Cmax of the agent was known.
Compounds. The drugs and investigational agents: BI-3406 (NSC825286), BAY-293 (NSC824723), batoprotafib (TNO155; NSC825523), sotorasib (AMG 510; NSC818433), MRTX1257 (NSC819558), elimusertib (BAY 1895344; NSC800525), molibresib (GSK525762; NSC774829), temuterkib (LY3214996; NSC803410), venetoclax (NSC766270), alisertib (NSC759677), olaparib (NSC753686), talazoparib (NSC767125), erdafitinib (NSC781556), ipatasertib (NSC767898), cabozantinib (NSC761068), nintedanib (NSC756659), abemaciclib (NSC768073), docetaxel (NSC628503), trametinib (NSC758246), and sapanisertib (NSC764658) were obtained from the National Cancer Institute (NCI) Developmental Therapeutics Program Chemical Repository. The FDA-approved anticancer drug set is available from the Developmental Therapeutics Program. […] The stock solutions were prepared in dimethyl sulfoxide (DMSO, Sigma-Aldrich, St. Louis, MO, cat. D2650) at 800-fold the tested concentration and stored at -70 degrees C prior to their use. All drugs and investigational agents were tested over a range starting from a high concentration at or near the clinical Cmax and decreasing in half-log increments. If the clinical Cmax for an agent had not been determined, the highest concentration tested was 10 microM.
Cell Culture. All cells were maintained in an incubator at 37 degrees C and 5% CO2 with 95% humidity. The PDC lines were cultured according to standard operating procedures established by the NCI PDMR (https://pdmr.cancer.gov/sops/default.htm). Briefly, all PDCs were thawed and cultured in Matrigel-coated flasks prepared with a working solution of 1X Ham's F-12 nutrient mix, without supplementation (Invitrogen, Waltham, MA, cat. 11765054), 100 U/mL penicillin-streptomycin (Invitrogen, cat. 15140122), and 2.5% Matrigel (Corning Inc., Corning, NY, cat. 354248) for the first three passages. All PDCs were cultured in complete DMEM/F-12 media containing advanced DMEM/F-12 (Invitrogen, cat. 12634028), 4.9% defined fetal bovine serum, heat inactivated (HyClone Laboratories Inc., Logan, UT, cat. SH30070.03HI), 389 ng/mL hydrocortisone (Sigma-Aldrich, cat. H4001), 9.7 ng/mL human EGF recombinant protein (Invitrogen, cat. PHG0313), 23.4 microg/mL adenine (Sigma-Aldrich, cat. A2786), 97.3 U/mL penicillin-streptomycin (Invitrogen, cat. 15140122), 1.9 mM L-glutamine (Invitrogen, cat. 25030081), and 9.7 microM Y-27632 dihydrochloride (Tocris Bioscience, Bristol, United Kingdom, cat. 1254). The PDCs were cultured in complete DMEM/F12 media without 9.7 microM Y-27632 dihydrochloride for at least two passages prior to the screen. The established cell line HOP-62 was cultured in RPMI 1640 medium, HEPES (Invitrogen, cat. 22400105) with 10% defined fetal bovine serum (HyClone Laboratories Inc., cat. SH30070.03) and 2 mM L-glutamine (Invitrogen, cat. 25030081). The pooled donor HUVEC were cultured in endothelial cell growth medium 2 (PromoCell, Heidelberg, Germany, cat. C-22011) and the hMSC were cultured in mesenchymal stem cell growth medium 2 (PromoCell, cat. C-28009). For all experiments, HUVEC and hMSC were used at passages </=5, while the malignant cell lines were used at passages </=15. […]

[1] = compound alone, run of 08/19/2021
[2] = compound alone, run of 08/26/2021
[3] = compound alone, run of 09/02/2021
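Note: compound exposure lasted 7 days before the readout.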
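Throughout, for viability, T/C: 100% = DMSO vehicle control viability.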

| SMILES | viability, T/C (compound 0.1 µM) | viability, T/C (compound 0.0316 µM) | IC50 (curve of compound) | viability, T/C (compound 0.316 µM) | viability, T/C (compound 1 µM) | viability, T/C (compound 3.16 µM) | viability, T/C (compound 10 µM) | also measured |
| --- | --- | --- | --- | --- | --- | --- | --- | --- |
| C=CC(=O)N1CCN(c2nc(=O)n(-c3c(C)ccnc3C(C)C)c3nc(-c4c(O)cccc4F)c(F)cc23)C(C)C1 (configuration not stated) | 92.7% [middle of 17 runs] | – | – | – | – | – | – | IC50 [1]: > 10 µM; IC50 [2]: > 10 µM; IC50 [3]: > 10 µM |
| C=CC(=O)N1CCN(c2nc(OCC3CCCN3C)nc3c2CCN(c2cccc4cccc(C)c24)C3)CC1CC#N (configuration not stated) | – | – | – | – | – | – | – | IC50 [2]: 1.65 µM [middle of 5 runs]; IC50 [3]: 1.62 µM [middle of 5 runs] |
| CC(=O)Nc1cccc(-n2c(=O)n(C3CC3)c(=O)c3c(Nc4ccc(I)cc4F)n(C)c(=O)c(C)c32)c1 | – | 14% [middle of 5 runs] | 9.89 nM [middle of 5 runs] | – | – | – | – | viability, T/C (compound 0.0001 µM): 92.7% [middle of 5 runs]; viability, T/C (compound 0.000316 µM): 89.7% [middle of 5 runs]; viability, T/C (compound 0.001 µM): 84.2% [middle of 5 runs]; viability, T/C (compound 0.00316 µM): 64.2% [middle of 5 runs]; viability, T/C (compound 0.01 µM): 55% [middle of 5 runs] |
| CC(=O)OC12COC1CC(O)C1(C)C(=O)C(O)C3=C(C)C(OC(=O)C(O)C(NC(=O)OC(C)(C)C)c4ccccc4)CC(O)(C(OC(=O)c4ccccc4)C21)C3(C)C (configuration not stated) | 84.7% [middle of 5 runs] | 91.1% [middle of 5 runs] | > 3.16 µM | 86.2% [middle of 5 runs] | – | – | – | – |
| CC(C)NCC(C(=O)N1CCN(c2ncnc3c2C(C)CC3O)CC1)c1ccc(Cl)cc1 (configuration not stated) | – | 91.2% [middle of 5 runs] | – | 89.6% [middle of 5 runs] | 78.3% [middle of 5 runs] | 65.2% [middle of 5 runs] | 42.5% [middle of 5 runs] | – |
| CC(C)n1nc(-c2ccc3oc(N)nc3c2)c2c(N)ncnc21 | 23.9% [middle of 5 runs] | 26.9% [middle of 5 runs] | – | – | – | – | – | viability, T/C (compound 0.000316 µM): 90.9% [middle of 5 runs]; viability, T/C (compound 0.001 µM): 92.8% [middle of 5 runs]; viability, T/C (compound 0.00316 µM): 66.5% [middle of 5 runs] |
| CC1(C)CCC(CN2CCN(c3ccc(C(=O)NS(=O)(=O)c4ccc(NCC5CCOCC5)c([N+](=O)[O-])c4)c(Oc4cnc5[nH]ccc5c4)c3)CC2)=C(c2ccc(Cl)cc2)C1 | 89.5% [middle of 5 runs] | 99.5% [middle of 5 runs] | 2.34 µM [middle of 5 runs] | 91.4% [middle of 5 runs] | 96.9% [middle of 5 runs] | 33.6% [middle of 5 runs] | 10.7% [middle of 5 runs] | – |
| CC1COCCN1c1cc(-c2ccnn2C)c2ccnc(-c3ccn[nH]3)c2n1 (configuration not stated) | 23.9% [middle of 5 runs] | – | 54.7 nM [middle of 5 runs] | 20.2% [middle of 5 runs] | 21.8% [middle of 5 runs] | 20.6% [middle of 5 runs] | – | – |
| CC1OCC2(CCN(c3cnc(Sc4ccnc(N)c4Cl)c(N)n3)CC2)C1N (configuration not stated) | – | 97.1% and 83.5% and 83% | > 10 µM | – | – | – | – | IC50 [1]: > 10 µM; IC50 [2]: > 10 µM; IC50 [3]: > 10 µM |
| CCN1CCN(Cc2ccc(Nc3ncc(F)c(-c4cc(F)c5nc(C)n(C(C)C)c5c4)n3)nc2)CC1 | 70% [middle of 5 runs] | 70.4% [middle of 5 runs] | > 1 µM and 0.595 µM and 0.96 µM | 65% [middle of 5 runs] | 48.4% [middle of 5 runs] | – | – | viability, T/C (compound 0.00316 µM): 85.5% [middle of 5 runs]; viability, T/C (compound 0.01 µM): 88.8% [middle of 5 runs] |
| CCNC(=O)CC1N=C(c2ccc(Cl)cc2)c2cc(OC)ccc2-n2c(C)nnc21 (configuration not stated) | 83% [middle of 5 runs] | 92.4% [middle of 5 runs] | – | 72.3% [middle of 5 runs] | 60.5% [middle of 5 runs] | 47.1% [middle of 5 runs] | 40.2% [middle of 5 runs] | – |
| CN(C)C/C=C/C(=O)Nc1cc2c(Nc3ccc(F)c(Cl)c3)ncnc2cc1O[C@H]1CCOC1 | 79% [middle of 5 runs] | – | > 0.1 µM | – | – | – | – | viability, T/C (compound 0.000316 µM): 94.5% [middle of 5 runs]; viability, T/C (compound 0.01 µM): 79.1% [middle of 5 runs] |
| CNCc1ccccc1-c1csc(C(C)Nc2nc(C)nc3cc(OC)c(OC)cc23)c1 (configuration not stated) | – | – | – | – | – | – | 0.16% [middle of 14 runs] | IC50 [2]: 1.13 µM [middle of 5 runs]; IC50 [3]: 952 nM [middle of 5 runs] |
| COC(=O)c1ccc2c(C(=Nc3ccc(N(C)C(=O)CN4CCN(C)CC4)cc3)c3ccccc3)c(O)[nH]c2c1 | 78.5% [middle of 5 runs] | 85.8% [middle of 5 runs] | 1.2 µM [middle of 5 runs] | 69.6% [middle of 5 runs] | 59.2% [middle of 5 runs] | 0.6% [middle of 4 runs] | 0.39% [middle of 4 runs] | – |
| COc1cc(Nc2ncc3c(n2)-c2ccc(Cl)cc2C(c2c(F)cccc2OC)=NC3)ccc1C(=O)O | 79.6% [middle of 5 runs] | 83.6% [middle of 5 runs] | > 10 µM | 79.4% [middle of 5 runs] | 83.3% [middle of 5 runs] | 85.9% [middle of 5 runs] | 72.5% [middle of 5 runs] | – |
| COc1cc(OC)cc(N(CCNC(C)C)c2ccc3ncc(-c4cnn(C)c4)nc3c2)c1 | 101% [middle of 5 runs] | – | 4.66 µM [middle of 4 runs] | 107% [middle of 5 runs] | 107% [middle of 5 runs] | – | 0.45% [middle of 4 runs] | – |
| COc1cc2nc(C)nc(NC(C)c3cc(N)cc(C(F)(F)F)c3)c2cc1OC1CCOC1 (configuration not stated) | – | – | – | – | – | – | – | IC50 [2]: 4.74 µM [middle of 4 runs]; IC50 [3]: 4.4 µM [middle of 6 runs] |
| COc1cc2nccc(Oc3ccc(NC(=O)C4(C(=O)Nc5ccc(F)cc5)CC4)cc3)c2cc1OC | – | – | > 10 µM and 6.16 µM and 10 µM | 96.5% [middle of 5 runs] | 105% [middle of 5 runs] | 60.4% [middle of 5 runs] | – | – |
| Cn1nccc1Nc1nccc(-c2cc3c(s2)C(C)(C)N(CCN2CCOCC2)C3=O)n1 | – | 91% [middle of 5 runs] | 574 nM [middle of 4 runs] | 68.6% [middle of 5 runs] | 30.6% [middle of 5 runs] | 7.98% [middle of 5 runs] | 4.32% [middle of 5 runs] | – |
| Cn1ncnc1[C@H]1c2n[nH]c(=O)c3cc(F)cc(c23)N[C@@H]1c1ccc(F)cc1 | – | 94.4% [middle of 5 runs] | > 0.1 µM | – | – | – | – | viability, T/C (compound 0.000316 µM): 102% [middle of 5 runs]; viability, T/C (compound 0.001 µM): 97.8% [middle of 5 runs]; viability, T/C (compound 0.00316 µM): 98.9% [middle of 5 runs]; viability, T/C (compound 0.01 µM): 88.3% [middle of 5 runs] |
| O=C(c1cc(Cc2n[nH]c(=O)c3ccccc23)ccc1F)N1CCN(C(=O)C2CC2)CC1 | 93% [middle of 5 runs] | 83% [middle of 5 runs] | > 10 µM | 87.8% [middle of 5 runs] | – | 88.3% [middle of 5 runs] | 80.5% [middle of 5 runs] | – |
